Drawing on ChEMBL document CHEMBL5550122, “Photodynamic anticancer activity evaluation of novel 5-aminolevulinic acid and 3-hydroxypyridinone conjugates” (Bioorg Med Chem, 2024), this text covers Activity, IC50 and Drug metabolism for 19 compounds.

In data set [1] the test system is HeLa. Put plainly: Cytotoxicity against human HeLa cells assessed as reduction in cell viability at 100 to 400 uM incubated for 4 hrs under dark condition by MTT assay. The data set is classed as functional, cell-based. The settings on record: dose 100-400 µM. (Tetrazolium dyes change colour on reduction, which living cells bring about.)
For data set [2], the system named is MCF7. Description: Cytotoxicity against human MCF7 cells assessed as reduction in cell viability at 100 to 400 uM incubated for 4 hrs under dark condition by MTT assay. The data set is classed as functional, cell-based. The settings on record: dose 100-400 µM.
In data set [3] the test system is A-375. Description: Cytotoxicity against human A-375 cells assessed as reduction in cell viability at 100 to 400 uM preincubated for 4 hrs under dark condition followed by irradiation with blue light at 5 J.cm^-2 energy level and measured after 18 hrs by MTT assay. Type of data set: functional, cell-based. The settings on record: dose 100-400 µM, time 22.0 hrs.

Data set [4] deals with HeLa. Put plainly: Cytotoxicity against human HeLa cells assessed as reduction in cell viability at 100 to 400 uM preincubated for 4 hrs under dark condition followed by irradiation with blue light at 5 J.cm^-2 energy level and measured after 18 hrs by MTT assay. The settings on record: dose 100-400 µM, time 22.0 hrs. Type of data set: functional, cell-based.
In data set [5] the test system is A-375. Description: Cytotoxicity against human A-375 cells assessed as reduction in cell viability at 100 to 400 uM incubated for 4 hrs under dark condition by MTT assay. Type of data set: functional, cell-based. The settings on record: dose 100-400 µM.
The test system of data set [6] is MCF7. Description: Cytotoxicity against human MCF7 cells assessed as reduction in cell viability at 100 to 400 uM preincubated for 4 hrs under dark condition followed by irradiation with blue light at 5 J.cm^-2 energy level and measured after 18 hrs by MTT assay. Type of data set: functional, cell-based. The settings on record: dose 100-400 µM, time 22.0 hrs.
Data set [7] has as its system MCF7. Description: Cytotoxicity against human MCF7 cells assessed as reduction in cell viability preincubated for 4 hrs under dark condition followed by irradiation with blue light at 2.5 J.cm^-2 energy level for 5 mins and measured after 18 hrs by MTT assay. Type of data set: functional, cell-based. The settings on record: MCF7, light or radiation study.
The subject of data set [8] is MCF7. Put plainly: Cytotoxicity against human MCF7 cells assessed as reduction in cell viability at 100 uM incubated for 4 hrs under dark condition by MTT assay. The data set is classed as functional, cell-based.
Data set [9] can be described thus: Drug metabolism assessed as esterase (unknown origin) mediated hydrolysis by measuring hydroxypyridinone formation. The settings on record: human. The data set is classed as ADME.
The subject of data set [10] is HeLa. Put plainly: Cytotoxicity against human HeLa cells assessed as reduction in cell viability preincubated for 4 hrs under dark condition followed by irradiation with blue light at 2.5 J.cm^-2 energy level for 5 mins and measured after 18 hrs by MTT assay. Type of data set: functional, cell-based. The settings on record: light or radiation study.
Data set [11] in a line: Prodrug release in human A-375 cells assessed as 3-[(1Z,4Z,9Z,15Z)-7-(2-carboxyethyl)-3,8,12,17-tetramethyl-13,18-divinyl-21,23-dihydroporphyrin-2-yl]propanoic acid release by measuring increase in fluorescence intensity at 20 to 80 uM by microplate reader analysis. The settings on record: a-375, 80 µM, dose 20-80 µM. The data set is classed as ADME, cell-based.
Data set [12] concerns A-375. Put plainly: Cytotoxicity against human A-375 cells assessed as reduction in cell viability at 100 uM incubated for 4 hrs under dark condition by MTT assay. The data set is classed as functional, cell-based.
Data set [13] in a line: Drug metabolism assessed as esterase (unknown origin) mediated hydrolysis by measuring 5-Aminolevulinic acid formation. The data set is classed as ADME. The settings on record: human.
Data set [14] deals with HeLa. Description: Cytotoxicity against human HeLa cells assessed as reduction in cell viability at 100 uM incubated for 4 hrs under dark condition by MTT assay. Type of data set: functional, cell-based.
The nature of data set [15]: Prodrug release in human Hela cells assessed as 3-[(1Z,4Z,9Z,15Z)-7-(2-carboxyethyl)-3,8,12,17-tetramethyl-13,18-divinyl-21,23-dihydroporphyrin-2-yl]propanoic acid release by measuring increase in fluorescence intensity at 20 to 80 uM by microplate reader analysis. Type of data set: ADME, cell-based. The settings on record: dose 20-80 µM.
For data set [16], the system named is A-375. Description: Cytotoxicity against human A-375 cells assessed as reduction in cell viability preincubated for 4 hrs under dark condition followed by irradiation with blue light at 2.5 J.cm^-2 energy level for 5 mins and measured after 18 hrs by MTT assay. The settings on record: A-375, light or radiation study. Type of data set: functional, cell-based.

Data set [17] can be described thus: Prodrug release in human MCF7 cells assessed as 3-[(1Z,4Z,9Z,15Z)-7-(2-carboxyethyl)-3,8,12,17-tetramethyl-13,18-divinyl-21,23-dihydroporphyrin-2-yl]propanoic acid release by measuring increase in fluorescence intensity at 20 to 80 uM by microplate reader analysis. The data set is classed as ADME, cell-based. The settings on record: mcf7, 80 µM, dose 20-80 µM.

Activity calls are given as the source filed them. The calls are words filed in the database; no cut-off is given here.

`COC(=O)CCC(=O)CNC(=O)[C@H](CC(C)C)NC(=O)Cn1cc(O)c(=O)cc1C`: the result in data set [1], in [2], in [3], in data set [4], in [5] and in data set [6] was inactive.
`COC(=O)CCC(=O)CNC(=O)Cn1cc(O)c(=O)cc1CO`: the outcome in data set [1], in [2], in [3], in data set [4], in data set [5] and in data set [6] was inactive.
On to `COC(=O)CCC(=O)CNC(=O)[C@H](Cc1ccccc1)NC(=O)Cn1ccc(=O)c(O)c1C`, for which the outcome in data set [1], in [2], in data set [3], in data set [4], in data set [5] and in data set [6] was inactive.
Consider `CCCCn1c(C)cc(=O)c(O)c1COC(=O)CCC(=O)CN.Cl`, for which the IC50 (commonly the concentration needed to halve the response being measured) is 38 µM in data set [7], 68.8 µM in data set [10] and 41.7 µM in [16]. Also, the result in data set [8], in data set [12] and in data set [14] was inactive. In addition, the Drug metabolism result in data set [9], in data set [11], in data set [13], in [15] and in data set [17] was “Metabolite_Detected” each time.
Turning to `COC(=O)CCC(=O)CNC(=O)CCCCn1cc(O)c(=O)cc1C`, the outcome in data set [1], in [2], in [3], in data set [4], in data set [5] and in data set [6] was inactive.
On to `COC(=O)CCC(=O)CNC(=O)[C@H](CC(C)C)NC(=O)Cn1ccc(=O)c(O)c1C`, for which the outcome in [1], in data set [2], in data set [3], in data set [4], in data set [5] and in data set [6] was inactive.
With `CCOCCCn1c(C)cc(=O)c(O)c1COC(=O)CCC(=O)CN.Cl`, the IC50 in data set [7] was found to be 64.7 µM; in data set [10] it was 43.9 µM; in data set [16], 52.2 µM. The result in data set [8], in [12] and in data set [14] was inactive. Further, the Drug metabolism result in data set [9], in data set [11], in data set [13], in data set [15] and in [17] was “Metabolite_Detected” each time.
On to `COC(=O)CCC(=O)CNC(=O)CCCCn1cc(O)c(=O)cc1CO`, for which the result in [1], in data set [2], in data set [3], in data set [4], in data set [5] and in [6] was inactive.
Consider `COC(=O)CCC(=O)CNC(=O)CCn1cc(O)c(=O)cc1C`, for which the outcome in data set [1], in [2], in data set [3], in data set [4], in data set [5] and in data set [6] was inactive.
For `COC(=O)CCC(=O)CNC(=O)CCn1cc(O)c(=O)cc1CO`, the outcome in [1], in [2], in data set [3], in data set [4], in [5] and in data set [6] was inactive.
Take `COC(=O)CCC(=O)CNC(=O)Cn1cc(O)c(=O)cc1C`: the outcome in [1], in [2], in data set [3], in data set [4], in data set [5] and in [6] was inactive.
For `CCCCCCCCn1c(C)cc(=O)c(O)c1COC(=O)CCC(=O)CN.Cl`, the IC50 in data set [7] is 48.9 µM; in [10] it was 44.2 µM; in data set [16], 38.5 µM. For the same compound, the Drug metabolism result in [9], in data set [11], in data set [13], in [15] and in data set [17] was “Metabolite_Detected” in each case. Also, the outcome in [14] was Active.
For the compound `Cc1cc(=O)c(O)c(COC(=O)CCC(=O)CN)n1CCc1ccccc1.Cl`, the figures for the IC50 in [7], in data set [10] and in data set [16] were 67.7 µM, 30 µM and 47.3 µM, respectively. In addition, the result in data set [8], in [12] and in data set [14] was inactive. Moreover, the Drug metabolism result in data set [9], in data set [11], in data set [13], in data set [15] and in data set [17] was “Metabolite_Detected” in each case.
Take `COC(=O)CCC(=O)CNC(=O)CCCCCn1cc(O)c(=O)cc1C`: the outcome in [1], in data set [2], in [3], in data set [4], in [5] and in [6] was inactive.
For the compound `COC(=O)CCC(=O)CNC(=O)[C@H](Cc1ccccc1)NC(=O)CCCCCn1cc(O)c(=O)cc1C`, the result in [1], in [2], in [3], in data set [4], in data set [5] and in [6] was inactive.
For the compound `COC(=O)CCC(=O)CNC(=O)CCCn1cc(O)c(=O)cc1C`, the outcome in data set [1], in data set [2], in data set [3], in data set [4], in data set [5] and in data set [6] was inactive.
Take `COC(=O)CCC(=O)CNC(=O)CCCCCn1cc(O)c(=O)cc1CO`: the outcome in data set [1], in data set [2], in [3], in data set [4], in [5] and in data set [6] was inactive.
For the compound `COC(=O)CCC(=O)CNC(=O)CCCn1cc(O)c(=O)cc1CO`, the outcome in [1], in data set [2], in data set [3], in [4], in data set [5] and in [6] was inactive.
With `COC(=O)CCC(=O)CNC(=O)[C@H](Cc1ccccc1)NC(=O)Cn1cc(O)c(=O)cc1C`, the result in [1], in data set [2], in [3], in data set [4], in [5] and in [6] was inactive.
